Laboratory results: PMC11785093 (bioRxiv, 2025)
Like-named read-outs stand apart in the source and are kept apart here.

Columns and labels:
DDB1 [1] = target: T1, DDB1 (Homo sapiens, UniProt Q16531); experiment: SPR; format: binding; conditions: read-out: estimated KD; biotinylated protein immobilised; pH […] °C, […] DMSO
DDB1 [2] = target: T1, DDB1; experiment: SPR; format: binding; conditions: biotinylated protein immobilised; pH […] °C, […] DMSO; site at W1047, Y1114

T1 sequence (Q16531 2-1140): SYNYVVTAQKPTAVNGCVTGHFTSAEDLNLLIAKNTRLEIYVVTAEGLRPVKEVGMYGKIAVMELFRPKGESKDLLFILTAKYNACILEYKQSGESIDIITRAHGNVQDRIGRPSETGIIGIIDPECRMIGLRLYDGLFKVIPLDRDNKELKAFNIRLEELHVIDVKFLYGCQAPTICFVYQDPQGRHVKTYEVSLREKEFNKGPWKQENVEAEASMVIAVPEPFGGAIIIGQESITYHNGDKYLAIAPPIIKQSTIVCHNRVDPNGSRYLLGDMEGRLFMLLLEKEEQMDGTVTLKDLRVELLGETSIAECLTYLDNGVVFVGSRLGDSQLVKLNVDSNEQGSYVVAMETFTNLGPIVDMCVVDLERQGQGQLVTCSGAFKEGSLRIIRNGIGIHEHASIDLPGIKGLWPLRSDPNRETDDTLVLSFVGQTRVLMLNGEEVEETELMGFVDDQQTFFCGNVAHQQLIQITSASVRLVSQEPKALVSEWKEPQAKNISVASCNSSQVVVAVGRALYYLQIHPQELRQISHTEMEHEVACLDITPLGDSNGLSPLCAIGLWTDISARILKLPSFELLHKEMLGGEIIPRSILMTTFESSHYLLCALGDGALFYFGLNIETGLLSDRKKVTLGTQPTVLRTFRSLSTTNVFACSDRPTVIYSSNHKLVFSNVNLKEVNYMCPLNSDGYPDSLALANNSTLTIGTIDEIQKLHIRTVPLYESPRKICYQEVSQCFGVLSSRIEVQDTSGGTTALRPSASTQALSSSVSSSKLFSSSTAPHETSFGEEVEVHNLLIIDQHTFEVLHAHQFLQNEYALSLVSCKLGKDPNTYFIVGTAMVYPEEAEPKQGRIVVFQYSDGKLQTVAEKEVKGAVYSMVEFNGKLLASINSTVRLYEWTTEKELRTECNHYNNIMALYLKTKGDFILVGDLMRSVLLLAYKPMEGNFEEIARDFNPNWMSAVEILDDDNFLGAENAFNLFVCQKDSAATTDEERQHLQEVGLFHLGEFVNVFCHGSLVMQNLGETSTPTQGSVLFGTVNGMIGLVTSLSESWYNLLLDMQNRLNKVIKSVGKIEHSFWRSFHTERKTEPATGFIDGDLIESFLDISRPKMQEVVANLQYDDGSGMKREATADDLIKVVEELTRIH

| SMILES | Kd (DDB1 [1]) [nM] | Kd (DDB1 [2]) [nM] |
| --- | --- | --- |
| CCOc1cccc([C@H]2CC(=O)Nc3c2c(C)nn3-c2ccc3nncn3n2)c1 [(R)-XS381952] | > 73000 |  |
| CCOc1cccc([C@@H]2CC(=O)Nc3c2c(C)nn3-c2ccc3nncn3n2)c1 [(S)-XS381952] |  | 2000 |
